Key:
mAb 8i10 = assay type: binding, human
2N9 control antibody = assay type: binding
14C2 antibody = assay type: binding
mAb 23K12 = assay type: binding, human
HuM2e antibody 23K12 = assay type: binding, human
[1] = test system: anti-M2 human monoclonal antibody Z3G1; assay type: binding

Row | Substance | Binding activity to truncated M2 peptides, ELISA absorbance at 450 nm, 8i10 (mAb 8i10) | Binding activity to truncated M2 peptides, ELISA absorbance at 450 nm, 2N9 (2N9 control antibody) | Signal (peptides that bind to 23K21 and 8I10) (HuM2e antibody 23K12) | Signal (peptides that show specific binding to Z3G1) [1] | further results
1 | SLLTEVETPIRNEW [NM14] | 0.11 | 0.09 |  |  | 
2 | TPIRNEWGCRCNDSSD [CM16] | 0.13 | 0.12 |  |  | Binding activity to truncated M2 peptides, ELISA absorbance at 450 nm, 14C2 (14C2 antibody): 0.23; Binding activity to truncated M2 peptides, ELISA absorbance at 450 nm, 23K12 (mAb 23K12): 0.35
3 | SLLTEVETPI [NM10] | 0.10 | 0.10 |  |  | Binding activity to truncated M2 peptides, ELISA absorbance at 450 nm, 14C2 (14C2 antibody): 0.17; Binding activity to truncated M2 peptides, ELISA absorbance at 450 nm, 23K12 (mAb 23K12): 0.24
4 | PIRNEWGCRCNDSSD [CM15] | 0.12 | 0.11 |  |  | 
5 | SLLTEVETP [NM9] | 0.12 | 0.19 |  |  | 
6 | SLLTEVETPIRNEWGCRCNDSSD [M2] | 0.11 | 0.06 |  |  | Binding activity to truncated M2 peptides, ELISA absorbance at 450 nm, 14C2 (14C2 antibody): 3.85; Binding activity to truncated M2 peptides, ELISA absorbance at 450 nm, 23K12 (mAb 23K12): 0.22
7 | SLLTEVETPIR [NM11] | 0.13 | 0.12 |  |  | Binding activity to truncated M2 peptides, ELISA absorbance at 450 nm, 14C2 (14C2 antibody): 0.21; Binding activity to truncated M2 peptides, ELISA absorbance at 450 nm, 23K12 (mAb 23K12): 0.30
8 | MSLLTEVETPIRNEWGCRCNDSSD [M2e] | 0.13 | 0.10 |  |  | Binding activity to truncated M2 peptides, ELISA absorbance at 450 nm, 14C2 (14C2 antibody): 3.98; Binding activity to truncated M2 peptides, ELISA absorbance at 450 nm, 23K12 (mAb 23K12): 0.43
9 | SLLTEVET [NM8] | 0.10 | 0.09 |  |  | Binding activity to truncated M2 peptides, ELISA absorbance at 450 nm, 14C2 (14C2 antibody): 0.15; Binding activity to truncated M2 peptides, ELISA absorbance at 450 nm, 23K12 (mAb 23K12): 0.20
10 | RNEWGCRCNDSSD [CM13] | 0.14 | 0.13 |  |  | 
11 | LTEVETPIRNEWGCR [M15] | 0.09 | 0.09 |  |  | 
12 | ETPIRNEWGCRCNDSSD [CM17] | 0.11 | 0.11 |  |  | 
13 | 482 (CLCTCVGSLLTEV; epitope peptide) [compound 482] |  |  | 1178 | 1953 | 
14 | 631 (SLLTEVETPIRKEWGCRCNDSSD; epitope peptide) [compound 631] |  |  | 782 | 2437 | 
15 | 689 (SLLTEVETPIRNEWGCRCGDSSD; epitope peptide) [compound 689] |  |  | 724 |  | Signal (peptides that bind to Z3G1) [1]: 2343
16 | 657 (SLLTEVDTPIRNEWGCRCNDSSD; epitope peptide) [compound 657] |  |  | 751 | 2095 | 
17 | 470 (MSLLTEVGCSLLTEC; epitope peptide) [compound 470] |  |  | 1227 |  | Signal (peptides that bind to Z3G1) [1]: 2349
18 | 326 (SLLTEVETPIRNEWGCRCNDSSD; epitope peptide) [compound 326] |  |  | 1749 | 2476 | 
19 | 676 (SLLTEVETPIENEWGCRCNDSSD; epitope peptide) [compound 676] |  |  | 731 | 2252 | 
20 | 283 (CSLLTEVGSLLTEV; epitope peptide) [compound 283] |  |  | 2494 | 2903 | 

Row | Substance | Binding activity to truncated M2 peptides, ELISA absorbance at 450 nm, 8i10 (mAb 8i10) | Binding activity to truncated M2 peptides, ELISA absorbance at 450 nm, 2N9 (2N9 control antibody) | Signal (peptides that bind to 23K21 and 8I10) (HuM2e antibody 23K12) | Signal (peptides that show specific binding to Z3G1) [1] | further results
21 | 438 (SLLTEVETPIRN; epitope peptide) [compound 438] |  |  | 751 |  | Signal (peptides that bind to Z3G1) [1]: 2130
22 | 291 (MSLLTEVGMCLCTCV; epitope peptide) [compound 291] |  |  | 2110 |  | Signal (peptides that bind to Z3G1) [1]: 2842
23 | 365 (CSLLTEVCMSLLTEC; epitope peptide) [compound 365] |  |  | 1498 |  | Signal (peptides that bind to Z3G1) [1]: 1891
24 | 701 (SLLTEVETPIRNEWGCKCNDSSD; epitope peptide) [compound 701] |  |  | 715 | 2290 | 
25 | 621 (SLLTEVEFPIRNEWGCRCNDSSD; epitope peptide) [compound 621] |  |  | 805 | 2297 | 
26 | SLLTEVETPIRNE [NM13] | 0.11 | 0.10 |  |  | 
27 | 651 (SLLTEVETPIRNEWGCRCHDSSD; epitope peptide) [compound 651] |  |  | 758 |  | Signal (peptides that bind to Z3G1) [1]: 2350
28 | 445 (SLLTEVETPIRNEWGCRCN; epitope peptide) [compound 445] |  |  | 977 |  | Signal (peptides that bind to Z3G1) [1]: 2506
29 | 372 (CSLLTEVGMSCLTEV; epitope peptide) [compound 372] |  |  | 1466 |  | Signal (peptides that bind to Z3G1) [1]: 2554
30 | 488 (SLLTEVETPIHNEWGCRCNDSSD; epitope peptide) [compound 488] |  |  | 1112 | 2121 | 
31 | 662 (SLLTEVETPIRNFWGCRCNDSSD; epitope peptide) [compound 662] |  |  | 747 | 2417 | 
32 | SLLTEVGSLLTEV (epitope peptide) [SEQ ID NO: 320] |  |  |  |  | Binding to 23K12 (in words) (HuM2e antibody 23K12): best 23k12 binder; Binding to Z3G1 (in words) [1]: recognized
33 | 709 (SLLTEVLTPIRNEWGCRCNDSSD; epitope peptide) [compound 709] |  |  | 707 | 1743 | 
34 | 410 (SLLTEVETPIRNEWGCRCNDLSD; epitope peptide) [compound 410] |  |  | 769 |  | Signal (peptides that bind to Z3G1) [1]: 2494
35 | 303 (CSLLTEVGMCLLTEV; epitope sequence) [compound 303] |  |  | 1941 |  | Signal (peptides that bind to Z3G1) [1]: 2618
36 | 467 (SLLTEVENPIRNEWGCRCNDSSD; epitope peptide) [compound 467] |  |  | 1245 | 2549 | 
37 | 317 (MSLLTEVGMSLCTEV; epitope peptide) [compound 317] |  |  | 1804 |  | Signal (peptides that bind to Z3G1) [1]: 2895
38 | 510 (SLRTEVETPIRNEWGCRCNDSSD; epitope peptide) [compound 510] |  |  | 1047 | 1034 | 
39 | SLLTEVETPIRNEWG [NM15] | 0.12 | 0.11 |  |  | 
40 | 511 (SLLCEVGCSLLTEV; epitope peptide) [compound 511] |  |  | 1044 | 2562 | 

From patent publication US8932597B2 (priority 2008, dated 2015)
